Results published in US12428428B2, “Tricyclic tetrahydroisoquinoline derivative, preparation method therefor and application thereof in medicine” (JIANGSU HENGRUI MEDICINE CO., LTD., priority 2020, dated 2025).

Columns and labels:
[1] = target: ER (estrogen receptor) (Homo sapiens (Human), UniProt P03372); assay: Inhibition of binding of E to ER (MCF-7/ERE-luciferase reporter cells); type: cell-based; settings: MCF-7/ERE-luciferase cells, 0.1 nM estradiol, 24 h
Procedure: The compounds of the present disclosure can inhibit the binding of E (estrogen) to ER (estrogen receptor), thereby blocking the binding of the complex of E and ER to ERE (estrogen response element), and consequently the expression of downstream luciferase proteins. The inhibitory effects of the compounds of the present disclosure on the binding of E to ER was tested by using the following method.
An ERE was cloned upstream of the luciferase gene, and MCF-7/ERE-luciferase monoclonal cells were selected by transfection of MCF-7 (TCHu74, National Collection of Authenticated Cell Cultures). The MCF-7/ERE-luciferase cells were seeded into a 96-well plate with an MEM (hyclone, SH30024.01B) medium containing 10% charcoal stripped FBS (Moregate, FBSF), 1% sodium pyruvate (sigma, S8636), 1% non-essential amino acids (sigma, M7145) and 500 μg/mL G418 at a density of 30,000 cells/well and cultured at 37° C. with 5% CO2. 20 mM stock solutions of the drugs are prepared, serially diluted 10-fold with 100% DMSO, and then diluted 20-fold with the medium. After the cells were cultured for 24 h, the medium was removed. 0.1 nM estradiol (sigma, E2758) and 10 μL of a medium-diluted drug were added to each well, and DMSO was added to the control group. The mixtures were well mixed by gentle shaking. The cells were cultured in an incubator at 37° C. with 5% CO2 for 24 h, and then the cell culture liquid was removed, followed by the addition of 50 μL of a luciferase substrate (Promega, E6110) to each well. The plate was let stand at room temperature in the dark for 10-15 min, and the chemiluminescence signal values were determined.
The inhibitory effects of the compounds of the present disclosure on the binding of E to ER were tested through the above experiment. The chemiluminescence signal value was plotted against the compound concentration (in log form) using Graphpad Prism, and the IC50 values of the compounds were obtained.

[2] = test system: ERα Y537S mutant-expressing MCF7 cells; assay: Inhibition of proliferation of ERα mutant-expressing MCF7 cells; type: cell-based; settings: Homo sapiens, 144 h
Text: The mutant estrogen receptor α (ERα) Y537S of human ERα protein was obtained by site-directed mutagenesis in a two-primer PCR manner using the cDNA of wild-type ESR1 gene (Accession No. NM000125) as a template. The sequences of the primers used in the mutation are as follows (the underlined nucleotides are the sites of mutation): Y537S: F-AAGAACGTGGTGCCCCTCTCTGACCTGCTGCTGGAGATG (SEQ ID NO: 1); R-CATCTCCAGCAGCAGGTCAGAGAGGGGCACCACGTTCTT (SEQ ID NO: 2). The cDNA of the mutant ESR1 was cloned into the lentiviral vector of interest pCDH-CMV-MCS-EF1-Puro. The lentiviral plasmid bearing the mutant ESR1 gene sequence and the lentiviral packaging plasmid were then transfected into HEK-293T cells (ATCC, CRL-3216) by using Lipofectamine 3000 Transfection Reagent (ThermoFisher Scientific, Cat #L3000075). Forty-eight hours after transfection, the virus-bearing medium supernatant was filtered and ultracentrifuged to obtain a virus precipitate, which was then resuspended in an appropriate amount of medium. The suspension was added to MCF7 cells (ATCC, HTB-22), followed by the addition of polybrene at a final concentration of 8 μg/mL. The mixture was incubated overnight. Two days after transfection, 1 μg/mL puromycin was added to the cell culture liquid for resistance screening. About two weeks later, an MCF7 cell line capable of stably expressing the ERαY537S mutant was obtained.
The ERα mutant-expressing MCF7 cells were cultured in an MEM (GE Healthcare, SH30024.01) complete medium containing 10% fetal bovine serum. On the first day of the experiment, the cells were seeded into a 96-well plate with complete medium at a density of 3,000 cells/well to form 100 μL of cell suspension per well. The plate was incubated overnight in a cell incubator at 37° C. with 5% CO2. The following day the medium was removed, and 135 μL of an MEM incomplete medium containing 2% fetal bovine serum, and 15 μL of a test compound prepared at different concentrations with the incomplete medium were added to each well. The final concentrations of the compound were 9 concentration points obtained by 4-fold serial dilution from 100 nM. A blank control containing 0.5% DMSO was set. The plate was incubated in a cell incubator at 37° C. with 5% CO2 for 144 h. On day 8, the 96-well cell culture plate was taken out. 150 μL of CellTiter-Glo® Luminescent Cell Viability Assay (Promega, G7573) was added to each well. The plate was let stand at room temperature for 10 min, and the luminescence signal values was read using a multilabel microplate reader (PerkinElmer, VICTOR 3). The IC50 values for the inhibitory activity of the compounds were calculated according to the compound concentrations and the luminescence signal values and are shown in Table 3.

Chain of ER (estrogen receptor) (P03372 whole entry): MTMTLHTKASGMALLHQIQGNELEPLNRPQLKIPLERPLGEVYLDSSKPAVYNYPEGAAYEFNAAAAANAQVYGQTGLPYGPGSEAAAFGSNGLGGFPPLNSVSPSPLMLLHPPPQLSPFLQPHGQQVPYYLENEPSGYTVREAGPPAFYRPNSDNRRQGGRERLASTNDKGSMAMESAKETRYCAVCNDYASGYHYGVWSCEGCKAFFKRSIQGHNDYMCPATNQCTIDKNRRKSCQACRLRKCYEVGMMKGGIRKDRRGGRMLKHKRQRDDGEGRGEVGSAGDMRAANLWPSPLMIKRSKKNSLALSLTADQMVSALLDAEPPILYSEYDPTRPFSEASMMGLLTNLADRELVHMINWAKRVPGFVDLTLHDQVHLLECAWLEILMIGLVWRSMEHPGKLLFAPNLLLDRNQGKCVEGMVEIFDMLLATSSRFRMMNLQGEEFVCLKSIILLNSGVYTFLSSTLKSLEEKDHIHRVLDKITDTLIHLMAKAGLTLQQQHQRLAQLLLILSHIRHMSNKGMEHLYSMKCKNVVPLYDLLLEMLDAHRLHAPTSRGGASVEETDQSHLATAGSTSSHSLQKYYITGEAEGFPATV

Row | Compound | IC50 [1] [nM] | IC50 [2] [nM]
1 | C[C@@H]1Cc2cc3c(cc2[C@@H](c2ccc(NC4CN(CCCF)C4)cn2)N1CC(F)(F)CO)OCO3 [Example 14, 2,2-Difluoro-3-((5S,7R)-5-(5-((1-(3-fluoropropyl)azetidin-3-yl)amino)pyridin-2-yl)-7-methyl-7,8-dihydro-[1,3]dioxolo[4,5-g]isoquinolin-6(5H)-yl)propan-1-ol] | 0.5 | 1.27
2 | [2H]C1([2H])Oc2cc3c(cc2O1)[C@@H](c1ccc(N[C@H]2CCN(CCCF)C2)cn1)N(CC(F)(F)CO)[C@H](C)C3 [Example 12, 2,2-Difluoro-3-((5S,7R)-5-(5-(((S)-1-(3-fluoropropyl)pyrrolidin-3-yl)amino)pyridin-2-yl)-7-methyl-7,8-dihydro-[1,3]dioxolo[4,5-g]isoquinolin-6(5H)-yl-2,2-d2)propan-1-ol] | 1.13 | 3.49
3 | C[C@@H]1Cc2cc3c(cc2[C@@H](c2ccc(N[C@H]4CCN(CCCF)C4)cn2)N1CC(F)(F)CO)OCO3 [Example 4, 2,2-Difluoro-3-((5S,7R)-5-(5-(((S)-1-(3-fluoropropyl)pyrrolidin-3-yl)amino)pyridin-2-yl)-7-methyl-7,8-dihydro-[1,3]dioxolo[4,5-g]isoquinolin-6(5H)-yl)propan-1-ol] | 0.37 | 0.89
4 | C[C@@H]1Cc2cc3c(cc2[C@@H](c2c(F)cc(N[C@H]4CCN(CCCF)C4)cc2F)N1CC(F)(F)F)OCO3 [Example 2, (S)—N-(3,5-difluoro-4-((5S,7R)-7-methyl-6-(2,2,2-trifluoroethyl)-5,6,7,8-tetrahydro-[1,3]dioxolo[4,5-g]isoquinolin-5-yl)phenyl)-1-(3-fluoropropyl)pyrrolidin-3-amine] | 0.1 | 0.78
5 | [2H]C1([2H])Oc2cc3c(cc2O1)[C@@H](c1ccc(N[C@H]2CCN(CCCF)C2)cc1)N(CC(F)(F)CO)[C@H](C)C3 [Example 19, 2,2-Difluoro-3-((5R,7R)-5-(4-(((S)-1-(3-fluoropropyl)pyrrolidin-3-yl)amino)phenyl)-7-methyl-7,8-dihydro-[1,3]dioxolo[4,5-g]isoquinolin-6(5H)-yl-2,2-d2)propan-1-ol] | 0.07 | 0.43
6 | C[C@@H]1Cc2cc3c(cc2[C@@H](c2ncc(N[C@H]4CCN(CCCF)C4)cc2F)N1CC(F)(F)CO)OCO3 [Example 11, 2,2-Difluoro-3-((5S,7R)-5-(3-fluoro-5-(((S)-1-(3-fluoropropyl)pyrrolidin-3-yl)amino)pyridin-2-yl)-7-methyl-7,8-dihydro-[1,3]dioxolo[4,5-g]isoquinolin-6(5H)-yl)propan-1-ol] | 0.35 | 0.71
7 | C[C@@H]1Cc2cc3c(cc2[C@@H](c2ccc(N[C@H]4CCN(CCCF)C4)cc2)N1CC(F)(F)F)OCO3 [Example 1, (S)-1-(3-fluoropropyl)-N-(4-((5R,7R)-7-methyl-6-(2,2,2-trifluoroethyl)-5,6,7,8-tetrahydro-[1,3]dioxolo[4,5-g]isoquinolin-5-yl)phenyl)pyrrolidin-3-amine] | 0.14 | 1.38
8 | [2H]C1([2H])Oc2cc3c(cc2O1)[C@@H](c1ccc(NC2CN(CCCF)C2)cn1)N(CC(F)(F)CO)[C@H](C)C3 [Example 13, 2,2-Difluoro-3-((5S,7R)-5-(5-((1-(3-fluoropropyl)azetidin-3-yl)amino)pyridin-2-yl)-7-methyl-7,8-dihydro-[1,3]dioxolo[4,5-g]isoquinolin-6(5H)-yl-2,2-d2)propan-1-ol] |  | 1.36

The remaining lines, values ahead:

Row | IC50 [1] [nM] | IC50 [2] [nM] | Compound
9 | 0.46 | 1.35 | C[C@@H]1Cc2cc3c(cc2[C@@H](c2ncc(N[C@H]4CCN(CCCF)C4)cc2F)N1CC(F)(F)F)OCO3 [Example 9, 5-Fluoro-N—((S)-1-(3-fluoropropyl)pyrrolidin-3-yl)-6-((5S,7R)-7-methyl-6-(2,2,2-trifluoroethyl)-5,6,7,8-tetrahydro-[1,3]dioxolo[4,5-g]isoquinolin-5-yl)pyridin-3-amine]
10 | 0.44 | 0.43 | C[C@@H]1Cc2cc3c(cc2[C@@H](c2ccc(N[C@H]4CCN(CCCF)C4)cc2)N1CC(F)(F)CO)OCO3 [Example 3, 2,2-Difluoro-3-((5R,7R)-5-(4-(((S)-1-(3-fluoropropyl)pyrrolidin-3-yl)amino)phenyl)-7-methyl-7,8-dihydro-[1,3]dioxolo[4,5-g]isoquinolin-6(5H)-yl)propan-1-ol]
11 | 0.19 | 0.68 | C[C@@H]1Cc2cc3c(cc2[C@@H](c2c(F)cc(O[C@H]4CCN(CCCF)C4)cc2F)N1CC(F)(F)F)OCO3 [Example 15, (5S,7R)-5-(2,6-difluoro-4-(((S)-1-(3-fluoropropyl)pyrrolidin-3-yl)oxy)phenyl)-7-methyl-6-(2,2,2-trifluoroethyl)-5,6,7,8-tetrahydro-[1,3]dioxolo[4,5-g]isoquinoline]
12 | 0.27 | 0.82 | C[C@@H]1Cc2cc3c(cc2[C@@H](c2ccc(N[C@H]4CCN(CCCF)C4)cn2)N1CC(F)(F)F)OCO3 [Example 6, N—((S)-1-(3-fluoropropyl)pyrrolidin-3-yl)-6-((5S,7R)-7-methyl-6-(2,2,2-trifluoroethyl)-5,6,7,8-tetrahydro-[1,3]dioxolo[4,5-g]isoquinolin-5-yl)pyridin-3-amine]
13 | 0.43 | 2.19 | C[C@@H]1Cc2cc3c(cc2[C@@H](c2ccc(NC4CN(CCCF)C4)cn2)N1CC(F)(F)F)OCO3 [Example 17, N-(1-(3-fluoropropyl)azetidin-3-yl)-6-((5S,7R)-7-methyl-6-(2,2,2-trifluoroethyl)-5,6,7,8-tetrahydro-[1,3]dioxolo[4,5-g]isoquinolin-5-yl)pyridin-3-amine]
14 | 0.05 | 0.07 | C[C@@H]1Cc2cc3c(cc2[C@@H](c2c(F)cc(N[C@H]4CCN(CCCF)C4)cc2F)N1CC(F)(F)CO)OCO3 [Example 5, 3-((5S,7R)-5-(2,6-difluoro-4-(((S)-1-(3-fluoropropyl)pyrrolidin-3-yl)amino)phenyl)-7-methyl-7,8-dihydro-[1,3]dioxolo[4,5-g]isoquinolin-6(5H)-yl)-2,2-difluoro-1-propanol]
15 | 0.07 | 0.25 | C[C@@H]1Cc2cc3c(cc2[C@@H](c2ccc(NC4CN(CCCF)C4)cc2)N1CC(F)(F)CO)OCO3 [Example 18, 2,2-Difluoro-3-((5R,7R)-5-(4-((1-(3-fluoropropyl)azetidin-3-yl)amino)phenyl)-7-methyl-7,8-dihydro-[1,3]dioxolo[4,5-g]isoquinolin-6(5H)-yl)propan-1-ol]
